Experimental data taken from ChEMBL document CHEMBL1201862, “PubChem BioAssay data set” (2004).
Active and inactive are the calls of the source. Rule as the data show it: active = IC50 of 10 µM or less and inactive = more.

Columns and labels:
[1] = target: Neuropeptides B/W receptor type 1 (Homo sapiens, UniProt P48145); assay: GPR7 antagonist potency, late-stage follow-up, cell-based, fluorescence, dose response, set 5 (AID 588566); assay type: functional
[2] = target: Melanin-concentrating hormone receptor 1 (Homo sapiens, UniProt Q99705); assay: Late-stage fluorescence-based counterscreen for antagonists of the G-protein coupled receptor 7 (GPR7): cell-based dose response assay to identify antagonists of the melanin-concentrating hormone receptor 1 (MCHR1) Set 5.; assay type: functional
Chain of Melanin-concentrating hormone receptor 1 (Q99705 whole entry): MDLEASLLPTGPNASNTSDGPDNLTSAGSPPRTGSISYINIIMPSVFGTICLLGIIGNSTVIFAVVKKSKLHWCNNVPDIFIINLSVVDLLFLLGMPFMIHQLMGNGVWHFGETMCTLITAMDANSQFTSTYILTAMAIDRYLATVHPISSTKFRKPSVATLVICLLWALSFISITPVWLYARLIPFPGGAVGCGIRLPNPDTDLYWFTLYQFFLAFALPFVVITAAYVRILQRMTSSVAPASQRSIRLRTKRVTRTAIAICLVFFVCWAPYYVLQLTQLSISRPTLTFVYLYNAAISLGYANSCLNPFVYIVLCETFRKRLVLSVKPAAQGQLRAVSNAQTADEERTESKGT

Chain of Neuropeptides B/W receptor type 1 (P48145 whole entry): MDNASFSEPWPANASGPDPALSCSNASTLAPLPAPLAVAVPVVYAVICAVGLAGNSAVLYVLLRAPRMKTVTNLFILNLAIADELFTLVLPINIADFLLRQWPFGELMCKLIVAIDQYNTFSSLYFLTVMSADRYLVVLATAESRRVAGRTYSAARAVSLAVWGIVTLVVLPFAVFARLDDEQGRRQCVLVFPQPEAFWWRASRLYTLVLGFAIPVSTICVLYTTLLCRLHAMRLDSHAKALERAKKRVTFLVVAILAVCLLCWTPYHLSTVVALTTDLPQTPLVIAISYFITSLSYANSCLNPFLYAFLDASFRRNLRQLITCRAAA

IC50 [1]: 1.45 µM (active)
IC50 [2]: 11.4 µM (inactive)
SMILES: COc1ccc(Oc2c(Cl)cnn(Cc3ccccc3C#N)c2=O)cc1
